Experimental data from PubChem BioAssay AID2060625 (Molecular Pharmacology Branch, DTP, NCI, 2025).

Test system: 186277-243-T-J2-PDC spheroids with HUVEC/MSC, viability
Test: Anticancer human tumor 186277-243-T-J2-PDC patient-derived colon adenocarcinoma cell line growth inhibition [CLK]
Settings: for IC50: curve of first compound; for viability, T/C: stronger effect = lower value
Method in brief: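 Patient-derived tumor cells grown as complex spheroids with HUVEC endothelial cells and mesenchymal stem cells, treated with drug combinations. Concentrations descend in half-log steps from near clinical Cmax, or from 10 microM if Cmax unknown.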
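Note: compound exposure lasted seven days before readout.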
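Throughout, for viability, T/C: 100% = DMSO vehicle control wells.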

SMILES: COc1ccc([C@@H](O)c2cc(-c3ncnc4cc(N5CCOCC5)ccc34)c(F)cc2Cl)nn1 + CNC(=O)c1ccc(Nc2nc(OC3CCCC3)c3c(-c4ccc5nc(C)oc5c4)c[nH]c3n2)c(OC)c1
- IC50 (second compound 0.0316 µM): 7660 nM
- IC50 (second compound 0.1 µM): 384 nM
- IC50 (second compound 0.316 µM): < 31.6 nM
- IC50 (second compound 1 µM): < 31.6 nM
- IC50 (second compound 3.16 µM): < 31.6 nM
- IC50 (second compound 10 µM): < 31.6 nM
- viability, T/C (second compound 0.0316 µM, first compound 0.0316 µM): 102%
- viability, T/C (second compound 0.0316 µM, first compound 0.1 µM): 86.8%
- viability, T/C (second compound 0.0316 µM, first compound 0.316 µM): 110%
- viability, T/C (second compound 0.0316 µM, first compound 1 µM): 87.6%
- viability, T/C (second compound 0.0316 µM, first compound 3.16 µM): 73.7%
- viability, T/C (second compound 0.0316 µM, first compound 10 µM): 43%
- viability, T/C (second compound 0.1 µM, first compound 0.0316 µM): 71.8%
- viability, T/C (second compound 0.1 µM, first compound 0.1 µM): 62.5%
- viability, T/C (second compound 0.1 µM, first compound 0.316 µM): 50.2%
- viability, T/C (second compound 0.1 µM, first compound 1 µM): 42.7%
- viability, T/C (second compound 0.1 µM, first compound 3.16 µM): 31.9%
- viability, T/C (second compound 0.1 µM, first compound 10 µM): 23.5%
- viability, T/C (second compound 0.316 µM, first compound 0.0316 µM): 38.7%
- viability, T/C (second compound 0.316 µM, first compound 0.1 µM): 40.7%
- viability, T/C (second compound 0.316 µM, first compound 0.316 µM): 29.9%
- viability, T/C (second compound 0.316 µM, first compound 1 µM): 23.7%
- viability, T/C (second compound 0.316 µM, first compound 3.16 µM): 18.6%
- viability, T/C (second compound 0.316 µM, first compound 10 µM): 14.5%
- viability, T/C (second compound 1 µM, first compound 0.0316 µM): 30.4%
- viability, T/C (second compound 1 µM, first compound 0.1 µM): 25.2%
- viability, T/C (second compound 1 µM, first compound 0.316 µM): 23.4%
- viability, T/C (second compound 1 µM, first compound 1 µM): 16.2%
- viability, T/C (second compound 1 µM, first compound 3.16 µM): 12.9%
- viability, T/C (second compound 1 µM, first compound 10 µM): 12.2%
- viability, T/C (second compound 3.16 µM, first compound 0.0316 µM): 27.1%
- viability, T/C (second compound 3.16 µM, first compound 0.1 µM): 29.2%
- viability, T/C (second compound 3.16 µM, first compound 0.316 µM): 23.2%
- viability, T/C (second compound 3.16 µM, first compound 1 µM): 18.5%
- viability, T/C (second compound 3.16 µM, first compound 3.16 µM): 16%
- viability, T/C (second compound 3.16 µM, first compound 10 µM): 10.7%
- viability, T/C (second compound 10 µM, first compound 0.0316 µM): 28.7%
- viability, T/C (second compound 10 µM, first compound 0.1 µM): 29.5%
- viability, T/C (second compound 10 µM, first compound 0.316 µM): 23.2%
- viability, T/C (second compound 10 µM, first compound 1 µM): 19.8%
- viability, T/C (second compound 10 µM, first compound 3.16 µM): 17.2%
- viability, T/C (second compound 10 µM, first compound 10 µM): 9%
